Consider 15 molecules from patent publication US10792283B2, “Quinoline analogs as phosphatidylinositol 3-kinase inhibitors” (HANGZHOU ZHENGXIANG PHARMACEUTICALS CO., LTD., priority 2016, dated 2020).

Where two headings read alike, the source gives them in different places.

A short description of data set [1]: Hepatocyte stability (parent drug disappearance in cryopreserved hepatocytes). It is filed as in vitro ADME, human. As to conditions: for half-life at 1 μM: human, cryopreserved hepatocytes. The procedure: The hepatocyte assay was used to evaluate the metabolic stability of test articles (TA) following incubation in cryopreserved hepatocytes by monitoring parent drug disappearance via […]. The TA with 1% final DMSO concentration was incubated with 0.5 million hepatocytes/ml at 1 μM substrate in duplicate. The incubation was carried out at 37° C. with 5% CO2 and saturating humidity. Samples were taken at 0, 1, 2, and 3 hours to monitor the disappearance of TA and a half-life (t ½) was determined. Table 2 below summarizes the t½ values (e.g. t ½) collected from this Example.

Data set [2] addresses PI3Kδ (Homo sapiens (Human), UniProt O00329). The experiment in a line: Enzymatic activity of PI3K isoforms, TR-FRET assay. It counts as biochemical. As to conditions: 10 μM ATP. The procedure: Enzymatic activity of the class I PI3K isoforms in the presence of the compounds of Table 1 above was measured using a time-resolved fluorescence resonance energy transfer (TR-FRET) assay.
The TR-FRET assay can monitor formation of the product 3,4,5-inositol triphosphate molecule (PIP3) as it competed with fluorescently labeled PIP3 for binding to the GRP-1 pleckstrin homology domain protein. An increase in […] product results in a decrease in TR-FRET signal as the labeled fluorophore is displaced from the GRP-1 protein binding site.
Control compound, PI-103, was tested in 10-dose IC50 with 3-fold serial dilution starting at 10 μm.
Data are normalized based on negative (DMSO) control. The alpha, beta, delta, and gamma IC50 values were calculated from the fit of the dose-response curves to a four parameter equation. IC50 are reported in units of nM.
IC50 values were obtained for all PI3K isoforms (α, β, δ, and γ), and Table 2 summarizes the IC50 data collected for PI3Kδ in this Example.

The subject of data set [3] is EHEB. Briefly: Cytotoxicity assay (CTG, 72 h) in EHEB. It is filed as cell-based. As to conditions: cell viability. The procedure:
(§1) Cytotoxicity assay of compound 2 of Table 1 in selected cell lines
(§2) Day 0: cell seeding for all cell lines with the density of 10000 cells/80 μL/well.
(§3) Day 1, drug treatment: Prepare 3-fold serial dilutions of compound stock solutions with growth medium. Dispense 20 μL (5×) drμg solution in each well (duplicates for each concentration), the final DMSO concentration of each well treated with test compound and corresponding vehicle control is 0.1%. Incubate the plate for 72 h in specified incubator.
(§4) Day 4, plate reading: Thaw CTG solution and equilibrate to room temperature, add 100 μL of CTG per well, mix the contents for 2 min on the plate shaker, incubate for 10 min before recording the luminescence signal using Envision.

For data set [4], the system named is SU-DHL-4. Briefly: Cytotoxicity assay (CTG, 72 h) in SU-DHL-4. It is filed as cell-based. The procedure:
as §1, §2, §3, §4

The test system of data set [5] is SU-DHL-5. Briefly: Cytotoxicity assay (CTG, 72 h) in SU-DHL-5. It counts as cell-based. The procedure:
as §1, §2, §3, §4

In data set [6] the test system is SU-DHL-6. Briefly: Cytotoxicity assay (CTG, 72 h) in SU-DHL-6. It is filed as cell-based. The procedure: as §1, §2, §3, §4
The conditions of data set [7]: cited from earlier work.
For data set [8] the following is noted: cited from earlier work. This is another data set of the same source.
In data set [9] the test system is JVM-2. The experiment in a line: Cytotoxicity assay (CTG, 72 h) in JVM-2. It counts as cell-based. The procedure: as §1, §2, §3, §4
Data set [10] can be described thus: PK profile after iv and PO dosing in rats. It counts as in vivo, SD rats. The procedure:
Compound 2 was dosed by both iv and PO in the rats.

Where [11] appears, read: 1 μM substrate, 0.5 million hepatocytes/ml, 37° C., read-out: hepatocyte T1/2 (converted).
Where [12] appears, read: human hepatocytes, Table 3 comparison, read-out: T ½.
Where [13] appears, read: Homo sapiens, SU-DHL-4, cell viability.
Setting [14] is: Homo sapiens, SU-DHL-5, cell viability.
[15] abbreviates: Homo sapiens, SU-DHL-6, cell viability.
Setting [16] is: IV, data from idelalisib NDA filing.
The mark [17] stands for this setting: oral, data from idelalisib NDA filing.
Where [18] appears, read: Homo sapiens, JVM-2, cell viability.
[19] abbreviates: Sprague-Dawley, rat, in vivo, 1.32 mg/kg, iv, rats.
Where [20] appears, read: Sprague-Dawley, rat, in vivo, po, 10 mg/kg, SD rats.

Chain of PI3Kδ (O00329 whole entry, the tested form may be a part, canonical isoform): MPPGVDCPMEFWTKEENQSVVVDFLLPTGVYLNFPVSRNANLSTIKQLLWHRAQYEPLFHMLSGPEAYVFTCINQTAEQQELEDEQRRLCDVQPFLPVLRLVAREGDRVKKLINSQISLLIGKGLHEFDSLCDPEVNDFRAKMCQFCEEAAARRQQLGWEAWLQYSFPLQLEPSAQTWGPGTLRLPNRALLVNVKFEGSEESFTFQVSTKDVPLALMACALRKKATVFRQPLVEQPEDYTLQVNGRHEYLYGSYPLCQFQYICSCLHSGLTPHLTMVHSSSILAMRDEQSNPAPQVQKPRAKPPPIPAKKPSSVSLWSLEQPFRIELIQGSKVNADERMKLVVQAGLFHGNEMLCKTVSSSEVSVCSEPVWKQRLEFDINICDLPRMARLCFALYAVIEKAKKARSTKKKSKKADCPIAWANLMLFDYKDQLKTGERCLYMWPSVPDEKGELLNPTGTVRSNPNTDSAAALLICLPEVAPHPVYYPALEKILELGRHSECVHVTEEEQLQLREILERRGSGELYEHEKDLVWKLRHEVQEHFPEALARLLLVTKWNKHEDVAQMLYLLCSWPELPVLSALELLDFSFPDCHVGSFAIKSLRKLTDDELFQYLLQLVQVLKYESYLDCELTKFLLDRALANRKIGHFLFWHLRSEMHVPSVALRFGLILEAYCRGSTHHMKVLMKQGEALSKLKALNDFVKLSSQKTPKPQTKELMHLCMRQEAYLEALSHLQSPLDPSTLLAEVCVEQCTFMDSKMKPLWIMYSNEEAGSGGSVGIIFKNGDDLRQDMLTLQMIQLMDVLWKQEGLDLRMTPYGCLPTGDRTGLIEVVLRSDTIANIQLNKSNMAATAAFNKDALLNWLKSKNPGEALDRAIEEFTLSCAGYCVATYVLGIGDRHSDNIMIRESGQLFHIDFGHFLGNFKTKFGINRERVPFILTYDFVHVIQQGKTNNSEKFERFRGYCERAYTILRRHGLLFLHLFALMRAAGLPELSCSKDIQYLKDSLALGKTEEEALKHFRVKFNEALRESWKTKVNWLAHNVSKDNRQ
Chain of PI3Kδ (P27986 whole entry partner, the tested form may be a part, canonical isoform): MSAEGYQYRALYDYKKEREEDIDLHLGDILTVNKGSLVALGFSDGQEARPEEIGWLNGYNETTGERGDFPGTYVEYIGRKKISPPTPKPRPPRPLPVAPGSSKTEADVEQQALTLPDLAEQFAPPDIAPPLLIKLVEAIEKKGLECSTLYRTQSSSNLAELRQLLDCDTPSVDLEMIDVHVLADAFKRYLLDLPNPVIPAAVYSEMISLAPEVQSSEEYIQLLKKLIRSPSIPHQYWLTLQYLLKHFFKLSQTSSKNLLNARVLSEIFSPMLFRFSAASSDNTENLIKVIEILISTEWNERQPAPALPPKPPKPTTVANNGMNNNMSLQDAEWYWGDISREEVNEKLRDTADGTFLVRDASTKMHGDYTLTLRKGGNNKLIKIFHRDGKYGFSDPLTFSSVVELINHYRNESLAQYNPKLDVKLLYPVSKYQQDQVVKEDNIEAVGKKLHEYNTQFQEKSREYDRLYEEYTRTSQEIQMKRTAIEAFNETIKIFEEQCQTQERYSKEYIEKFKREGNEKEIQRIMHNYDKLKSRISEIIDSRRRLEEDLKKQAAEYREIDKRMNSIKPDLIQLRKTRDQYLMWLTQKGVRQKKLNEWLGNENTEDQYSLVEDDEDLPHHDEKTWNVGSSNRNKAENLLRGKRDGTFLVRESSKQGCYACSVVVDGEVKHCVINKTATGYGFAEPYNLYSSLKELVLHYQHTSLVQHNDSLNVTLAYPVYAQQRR

For `C[C@H](Nc1ncnc(N)c1C#N)c1cc2ccc(F)cc2nc1-c1cccc(F)c1` [G, reference compound], the half-life at 1 μM in data set [1] (setting [11]) was 1.2 h; in data set [1] (setting [12]), under 1.5 h.

As a reminder, the IC50 is the concentration needed to halve the response being measured. A lower IC50 goes with inhibition by little substance. `C[C@H](Nc1nc(N)nc(N)c1C#N)c1cc2ccc(F)cc2nc1-c1cccc(F)c1` [Compound 5, (S)-2,4-diamino-6-{1-[7-fluoro-2-(3-fluoro-phenyl)-quinolin-3-yl]-ethylamino}-pyrimidine-5-carbonitrile]: the results for the half-life at 1 μM in data set [1] (setting [11]) and in data set [1] (setting [12]) were 20 h and over 12 h, respectively. The same molecule came in with an IC50 in [2] of 0.14 nM.

As to `C[C@H](Nc1nc(N)nc(N)c1C#N)c1cc2ccc(F)cc2nc1-c1cc(F)cc(F)c1` [Compound 3, (S)-2,4-Diamino-6-{1-[2-(3,5-difluoro-phenyl)-7-fluoro-quinolin-3-yl]-ethylamino}-pyrimidine-5-carbonitrile], in [1] (setting [11]), the half-life at 1 μM is 17 h. Moreover, the half-inhibitory concentration (IC50) in [2] is 0.24 nM.

With `C[C@H](Nc1ncnc(N)c1C#N)c1cc2ccc(F)cc2nc1-c1ccccc1S(C)(=O)=O` [Compound E, reference compound], the half-life at 1 μM in data set [1] (setting [11]) was 4.8 h.

With `C[C@H](Nc1ncnc(N)c1C#N)c1cc2ccc(F)cc2nc1-c1ccccn1` [H, reference compound], the half-life at 1 μM was 0.88 h in data set [1] (setting [11]) and under 1 h in data set [1] (setting [12]).

Consider `C[C@H](Nc1ncnc(N)c1C#N)c1cc2ccc(F)cc2nc1-c1ccccc1` [D, reference compound], for which the half-life at 1 μM in data set [1] (setting [11]) is 10 h.

Turning to `C[C@H](Nc1nc(N)nc(N)c1C#N)c1cc2cccc(F)c2nc1-c1ccccc1S(C)(=O)=O` [Compound 7, (S)-2,4-Diamino-6-{1-[8-fluoro-2-(2-methanesulfonyl-phenyl)-quinolin-3-yl]-ethylamino}-pyrimidine-5-carbonitrile], the half-life at 1 μM was 59 h in [1] (setting [11]) and over 48 h in data set [1] (setting [12]). In addition, it took 2.1 nM to reach half-maximal inhibition in [2] (IC50).

On to `C[C@H](Nc1nc(N)nc(N)c1C#N)c1cc2cccc(Cl)c2nc1-c1ccccn1` [Compound 8, (S)-2,4-Diamino-6-[1-(8-chloro-2-pyridin-2-yl-quinolin-3-yl)-ethylamino]-pyrimidine-5-carbonitrile], for which it took 0.97 nM to reach half-maximal inhibition in data set [2] (IC50).

One may read the Cmax as the highest concentration seen after dosing. As usually defined, the Tmax is the time from dosing to the highest level. On to `CC[C@H](Nc1ncnc2[nH]cnc12)c1nc2cccc(F)c2c(=O)n1-c1ccccc1` [Idelalisib, idelalisib], for which the IC50 in [3] turned out to be 0.506 µM; in [4] (setting [13]) it was 0.198 µM; in data set [5] (setting [14]) it was 1.68 µM; in data set [6] (setting [15]) it was 0.13 µM; in [9] (setting [18]), 1.43 µM. In addition, the entries for the “Fatal and/or serious hepatotoxicity, % of patients” value in [7] (combination trials) and in [7] (monotherapy) were 11% and 18%, respectively. Besides, the “AUCinf” value is 1.151 ± 0.407 µg·h/mL in [8] (setting [16]) and 0.422 ± 0.067 µg·h/mL in data set [8] (setting [17]). Besides, the “Cl” value in data set [8] (setting [16]) was 28.7 ± 1.14 L/h/kg. Also, the “Cmax” value in [8] (setting [16]) was 1.437 ± 0.22 µg/mL; in data set [8] (setting [17]), 0.129 ± 0.049 µg/mL. Further, the “Tmax” value in [8] (setting [16]) was 0.08 h; in data set [8] (setting [17]), 3.00 h. For the same molecule, the “VSS” value in [8] (setting [16]) is on record as 2.49 L/kg. The “t1/2” value in [8] (rat, in vivo, iv) is 1.89 h.

For the molecule `C[C@H](Nc1nc(N)nc(N)c1C#N)c1cc2ccc(F)cc2nc1-c1ccccc1S(C)(=O)=O` [Compound 4, (S)-2,4-Diamino-6-{1-[7-fluoro-2-(2-methanesulfonyl-phenyl)-quinolin-3-yl]-ethylamino}-pyrimidine-5-carbonitrile], in data set [1] (setting [11]), the half-life at 1 μM was 6 h. Besides, the “improved stability in human hepatocytes (longer half-life), fold” value in [1] (versus compound E) is on record as 1.3 ×. The same molecule returned an IC50 in [2] of 0.27 nM.

As for `C[C@H](Nc1nc(N)nc(N)c1C#N)c1cc2ccc(F)cc2nc1-c1ccccc1` [Compound 1, (S)-2,4-diamino-6-[1-(7-fluoro-2-phenyl-quinolin-3-yl)-ethylamino]-pyrimidine-5-carbonitrile], in data set [1] (setting [11]), the half-life at 1 μM is 27 h. Further, the “improved stability in human hepatocytes (longer half-life), fold” value in data set [1] (versus compound D) amounted to 2.7 ×. The same molecule yielded an IC50 in [2] of 0.043 nM.

`C[C@H](Nc1nc(N)nc(N)c1C#N)c1cc2cccc(F)c2nc1-c1ccccn1` [Compound 6, (S)-2,4-Diamino-6-[1-(8-fluoro-2-pyridin-2-yl-quinolin-3-yl)-ethylamino]-pyrimidine-5-carbonitrile]: the half-life at 1 μM in data set [1] (setting [11]) is 9 h.

Usually AUC(0-inf) stands for total exposure, with the tail of the curve extrapolated. Read a low AUC(0-inf) as low exposure. One may read the bioavailability as the share of a dose that reaches the circulation, judged against a reference dose that is usually intravenous. A high value points to good availability. Regarding `C[C@H](Nc1nc(N)nc(N)c1C#N)c1cc2ccc(F)cc2nc1-c1ccccn1` [Compound 2, (S)-2,4-Diamino-6-[1-(7-fluoro-2-pyridin-2-yl-quinolin-3-yl)-ethylamino]-pyrimidine-5-carbonitrile], the concentration for half-maximal inhibition (IC50) in data set [3] turned out to be 0.216 µM; in data set [4] (setting [13]), 0.088 µM; in data set [5] (setting [14]), 0.493 µM; in data set [6] (setting [15]), 0.035 µM; in data set [2] it was 0.086 nM; in [9] (setting [18]), 0.931 µM. Further, the figures for the half-life at 1 μM in [1] (setting [11]) and in [1] (setting [12]) were 53 h and over 48 h, respectively. Moreover, the values for the AUC(0-inf) in data set [10] (setting [19]) and in data set [10] (setting [20]) were 4.55 µg·h/mL and 29.5 µg·h/mL, respectively. In addition, the Cmax in [10] (setting [19]) stood at 1.09 µg/mL; in data set [10] (setting [20]), 3.17 µg/mL. The results for the Tmax in [10] (setting [19]) and in [10] (setting [20]) were 0.08 h and 2 h, respectively. The molecule also had a clearance in data set [10] (setting [19]) of 0.276 L/h/kg. Also, the half-life in data set [10] (setting [19]) is 3.55 h; in data set [10] (setting [20]) it was 3.12 h. In [10] (Sprague-Dawley, rat, in vivo, 1.32 mg/kg, iv, rats, read-out: VSS), the Vd was 1.12 L/kg. In addition, in data set [10] (setting [20]), the bioavailability is 80%. Also, the AUCinf/Dose was found to be 3448 in data set [10] (iv, rats) and 2949 in [10] (po, 10 mg/kg, SD rats). Also, the Cmax/Dose in [10] (iv, rats) turned out to be 828; in [10] (po, 10 mg/kg, SD rats), 317. Further, the “Oral exposure corrected with dose (AUCinf/dose), fold higher than that of idelalisib” value in [10] (oral dose 10 mg/kg, SD rats, versus idelalisib) was 20 fold. Moreover, the “Cl” value in data set [10] (po, 10 mg/kg, SD rats) was determined as 0.276 L/h/kg.

Turning to `N.N.[Cl][Pt][Cl]` [Cisplatin], the IC50 stood at 2.59 µM in data set [3]; 0.507 µM in data set [4] (cell viability); 0.28 µM in data set [5] (cell viability); 5.61 µM in data set [6] (cell viability); 0.749 µM in data set [9] (cell viability).

For the molecule `C[C@H](Nc1ncnc(N)c1C#N)c1cc2cccc(F)c2nc1-c1ccccc1S(C)(=O)=O` [F, reference compound], the values for the half-life at 1 μM in data set [1] (setting [11]) and in data set [1] (setting [12]) were 5.9 h and under 6 h, respectively.
